Series [1] relates to Human immunodeficiency virus 1. As to the kind of experiment: Anti-HIV activity in acutely infected H9 lymphocytes. Type of series: functional, organism-based.
In series [2] the test system is Human immunodeficiency virus 1. As to the kind of experiment: (§1) Tested for in vitro therapeutic index as the ratio of IC50 to EC50 in acutely infected H9 Lymphocytes. Format: organism-based. The settings on record: Human immunodeficiency virus 1.
The nature of series [3]: as §1. Format: organism-based, Human immunodeficiency virus 1. The settings on record: human immunodeficiency virus 1, H9 lymphocytes acutely infected with HIV-1; read-out: TI.
The nature of series [4]: Tested for in vitro therapeutic index as the ratio of IC50 to EC50 in acutely infected U937. The settings on record: human, acutely infected U937 cells; read-out: TI. Format: cell-based, U-937.
Series [5] can be described thus: Tested for in vitro therapeutic index as the ratio of IC50 to EC50 in PBMCs. The settings on record: human, read-out: TI.
The next series relates to U-937. The experiment in a line: Compound was tested for anti-HIV activity in acutely infected U937. Type of series: functional, cell-based. The settings on record: Homo sapiens.

These results are taken from ChEMBL document CHEMBL1127408, “Anti-AIDS agents. 15. Synthesis and anti-HIV activity of dihydroseselins and related analogs” (J Med Chem, 1994).

By EC50 is commonly meant the concentration at which the effect is half-maximal. A lower EC50 goes with an effect from little substance. `CC1(C)Oc2ccc3ccc(=O)oc3c2C(OC(=O)C23CCC(C)(C(=O)O2)C3(C)C)C1OC(=O)C12CCC(C)(C(=O)O1)C2(C)C` (stereo in doubt; 39): the EC50 in series [1] came out at 32 µM. Besides, the TI in series [2] is given as greater than 5.

`CC1(C)Oc2ccc3ccc(=O)oc3c2C(OC(=O)c2cccc(Cl)c2)C1OC1CCCCO1` (single isomer, unassigned) gave an EC50 in series [1] (Human immunodeficiency virus 1) of 8.3 µM. Moreover, in series [3], the selectivity ratio amounted to 10.

As for `CC(C)CC(=O)OC1c2c(ccc3ccc(=O)oc23)OC(C)(C)C1OC(=O)CC(C)C` (stereo in doubt; 9), in series [1], a half-maximal response (EC50) required 7 µM. The selectivity ratio in series [3] was found to be 2.

Compound `CC(=O)OC1c2c(ccc3ccc(=O)oc23)OC(C)(C)C1OCc1ccccc1` (stereo not given) came in with an EC50 in series [1] (Human immunodeficiency virus 1) of 38 µM. Further, the selectivity ratio in series [3] was determined as 2.3.

`CC(C)(C)c1ccc(C(=O)OC2c3c(ccc4ccc(=O)oc34)OC(C)(C)C2OC(=O)c2ccc(C(C)(C)C)cc2)cc1` (stereo not given): the EC50 in series [1] (Human immunodeficiency virus 1) was less than 1.4 µM. In addition, the selectivity ratio in series [3] was greater than 2.2.

`CC1(C)Oc2ccc3ccc(=O)oc3c2C(OC(=O)c2cccc(Cl)c2)C1OCc1ccccc1` (stereo not given) returned an EC50 in series [1] (Human immunodeficiency virus 1) of 3.1 µM. Besides, the selectivity ratio in series [3] worked out at 5.

On to `CC(C)CC(=O)OC1C(OC(=O)c2cccc(Cl)c2)c2c(ccc3ccc(=O)oc23)OC1(C)C` (stereo not given), for which the EC50 in series [1] (Human immunodeficiency virus 1) is 9.3 µM. The selectivity ratio in series [3] stood at 1.4.

As to `CC1(C)Oc2ccc3ccc(=O)oc3c2C(N=[N+]=[N-])C1O` (stereo not given), a half-maximal effect in series [1] (Human immunodeficiency virus 1) (EC50) was put at 116 µM. In addition, in series [3], the selectivity ratio worked out at 2.9.

In series [1] (Human immunodeficiency virus 1), `CC(=O)OC1C(N=[N+]=[N-])c2c(ccc3ccc(=O)oc23)OC1(C)C` (stereo not given) gave an EC50 of 116 µM. In series [3], the selectivity ratio amounted to 1.

As for `CC1(C)Oc2ccc3ccc(=O)oc3c2C(O)C1OCc1ccccc1` (stereo not given), the EC50 in series [1] (Human immunodeficiency virus 1) came to 43 µM. The selectivity ratio in series [3] was 2.7.

In the case of `CC1(C)Oc2ccc3ccc(=O)oc3c2[C@@H](OC(=O)C23CCC(C)(C(=O)O2)C3(C)C)[C@H]1OC(=O)C12CCC(C)(C(=O)O1)C2(C)C` (mixture of isomers; 16), the EC50 in series [1] amounted to 4 µM; in the series on U-937, 0.0021 µM. The selectivity ratio is 11700 in series [4] and 472 in series [5]. For the same compound, in series [2], the TI worked out at 136719.

`CC(=O)OC1c2c(ccc3ccc(=O)oc23)OC(C)(C)C1OC(C)=O` (stereo in doubt; 8) showed an EC50 in series [1] (Human immunodeficiency virus 1) of 69.4 µM. In series [2], the TI came to 0.4.

In turn, `CC1(C)Oc2ccc3ccc(=O)oc3c2C(OC(=O)c2cccc(Cl)c2)C1O` (stereo not given) showed an EC50 in series [1] (Human immunodeficiency virus 1) of 4.2 µM. For the same compound, in series [3], the selectivity ratio is 2.4.

In the case of `CCC(C)C(=O)OC1c2c(ccc3ccc(=O)oc23)OC(C)(C)C1OC(=O)C(C)CC` (stereo not given), in series [1] (Human immunodeficiency virus 1), the EC50 is 7 µM. The selectivity ratio in series [3] came out at 14.4.

`CC(C)=CC(=O)OC1c2c(ccc3ccc(=O)oc23)OC(C)(C)C1OC(=O)C=C(C)C` (stereo not given): the EC50 in series [1] (Human immunodeficiency virus 1) is 4.7 µM. The selectivity ratio in series [3] was 3.5.

`CC(=O)OC1c2c(ccc3ccc(=O)oc23)OC(C)(C)C1OC(C)=O` (stereo in doubt; 37) yielded an EC50 in series [1] of 43 µM. The TI in series [2] is given as 3.

`Cc1cn([C@H]2C[C@H](N=[N+]=[N-])[C@@H](CO)O2)c(=O)[nH]c1=O` [ZIDOVUDINE] had an EC50 in series [1] (Human immunodeficiency virus 1) of 0.15 µM. In series [3], the selectivity ratio came out at 12500.

The compound `CC1(C)C=Cc2c(ccc3ccc(=O)oc23)O1` [SESALIN] displayed an EC50 in series [1] (Human immunodeficiency virus 1) of 3.5 µM. Also, the selectivity ratio in series [3] is 5.

In series [1] (Human immunodeficiency virus 1), `CC1(C)Oc2ccc3ccc(=O)oc3c2C(OC(=O)C23CCC(C)(C(=O)O2)C3(C)C)C1OC(=O)C12CCC(C)(C(=O)O1)C2(C)C` (stereo in doubt; 38) came in with a concentration for a half-maximal effect (EC50) of 24.1 µM. In addition, the selectivity ratio in series [3] stood at 3.

On to `CC(C)[C@H]1CC[C@H](C)C[C@@H]1OC(=O)OC1c2c(ccc3ccc(=O)oc23)OC(C)(C)C1OC(=O)O[C@@H]1C[C@H](C)CC[C@H]1C(C)C` (stereo not given in full), for which the EC50 in series [1] (Human immunodeficiency virus 1) came out at 11.4 µM. The selectivity ratio in series [3] was 2.9.

Compound `CC1(C)Oc2ccc3ccc(=O)oc3c2[C@@H](OC(=O)C23CCC(C)(C(=O)O2)C3(C)C)[C@H]1OC(=O)C12CCC(C)(C(=O)O1)C2(C)C` (mixture of isomers; 17) had an EC50 in series [1] of 145 µM. Also, the TI in series [2] was determined as 1.1.

In turn, `COC1C(OC(=O)c2cccc(Cl)c2)c2c(ccc3ccc(=O)oc23)OC1(C)C` (stereo not given) registered an EC50 in series [1] (Human immunodeficiency virus 1) of 241 µM. Also, the selectivity ratio in series [3] is 0.34.

With `C/C=C(\C)C(=O)O[C@@H]1c2c(ccc3ccc(=O)oc23)OC(C)(C)[C@@H]1OC(C)=O` [PTERYXIN], in series [1] (Human immunodeficiency virus 1), the response was half-maximal at 4.6 µM (EC50). The selectivity ratio in series [3] is 4.5.

In turn, `CC(C)CC(=O)OC1c2c(ccc3ccc(=O)oc23)OC(C)(C)C1OC(=O)CC(C)C` (stereo in doubt; 42) showed an EC50 in series [1] of 20.9 µM. In addition, the TI in series [2] is 3.

`CC(C)(C)CC(=O)O[C@@H]1c2c(ccc3ccc(=O)oc23)OC(C)(C)[C@@H]1OC(=O)CC(C)(C)C` showed an EC50 in series [1] (Human immunodeficiency virus 1) of 21.8 µM. For the same compound, in series [3], the selectivity ratio came to 2.

As for `CC(=O)O[C@@H]1[C@H](OC(=O)CC(C)C)c2c(ccc3ccc(=O)oc23)OC1(C)C` [SUKSDORFIN], in series [1] (Human immunodeficiency virus 1), a half-maximal effect (EC50) was put at 2.6 µM. For the same compound, the selectivity ratio in series [3] is 30.6.
